In ChEMBL document CHEMBL1909294, “Translating clinical findings into knowledge in drug safety evaluation--drug induced liver injury prediction system (DILIps)” (PLoS Comput Biol, 2011):

Assays:
[1] = system: Hepatotoxicity;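 for HepSE bilirubinemia: bilirubinemia hepatic side effect score drawn from the DILIps training data, a prediction system for drug-induced liver injury; call rule not given here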;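 for HepSE cholecystitis: Cholecystitis-related hepatic side effect score drawn from the DILIps (drug-induced liver injury prediction) training data set; call rule not given here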;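 for HepSE cholelithiasis: hepatic side effect score for cholelithiasis, drawn from the DILIps training data for predicting drug-induced liver injury; call rule not given here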;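 for HepSE cirrhosis: cirrhosis hepatic side effect score taken from the DILIps (drug-induced liver injury prediction) training set; call rule not given here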;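 for HepSE elevated liver function tests: hepatic side effect score for raised liver function tests, as recorded in the DILIps training set used for predicting drug-induced liver injury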; for HepSE hepatic failure: call rule not given here;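 for HepSE hepatomegaly: hepatic side effect score for hepatomegaly, taken from the training set of the DILIps drug-induced liver injury prediction system; call rule not given here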
[2] = system: Hepatotoxicity; remark: listed apart in the source;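 for HepSE bilirubinemia: bilirubinemia hepatic side effect score drawn from the DILIps training data, a prediction system for drug-induced liver injury; call rule not given here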;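 for HepSE cholecystitis: Cholecystitis-related hepatic side effect score drawn from the DILIps (drug-induced liver injury prediction) training data set; call rule not given here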;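 for HepSE cholelithiasis: hepatic side effect score for cholelithiasis, drawn from the DILIps training data for predicting drug-induced liver injury; call rule not given here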;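 for HepSE cirrhosis: cirrhosis hepatic side effect score taken from the DILIps (drug-induced liver injury prediction) training set; call rule not given here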;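 for HepSE elevated liver function tests: hepatic side effect score for raised liver function tests, as recorded in the DILIps training set used for predicting drug-induced liver injury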; for HepSE hepatic failure: call rule not given here
[3] = system: Hepatotoxicity; remark: listed apart in the source;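 for HepSE bilirubinemia: bilirubinemia hepatic side effect score drawn from the DILIps training data, a prediction system for drug-induced liver injury; call rule not given here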;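 for HepSE cholecystitis: Cholecystitis-related hepatic side effect score drawn from the DILIps (drug-induced liver injury prediction) training data set; call rule not given here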;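 for HepSE cholelithiasis: hepatic side effect score for cholelithiasis, drawn from the DILIps training data for predicting drug-induced liver injury; call rule not given here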;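 for HepSE cirrhosis: cirrhosis hepatic side effect score taken from the DILIps (drug-induced liver injury prediction) training set; call rule not given here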;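 for HepSE elevated liver function tests: hepatic side effect score for raised liver function tests, as recorded in the DILIps training set used for predicting drug-induced liver injury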; for HepSE hepatic failure: call rule not given here
[4] = system: Hepatotoxicity; remark: listed apart in the source;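 for HepSE bilirubinemia: bilirubinemia hepatic side effect score drawn from the DILIps training data, a prediction system for drug-induced liver injury; call rule not given here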;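 for HepSE cholecystitis: Cholecystitis-related hepatic side effect score drawn from the DILIps (drug-induced liver injury prediction) training data set; call rule not given here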;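 for HepSE cholelithiasis: hepatic side effect score for cholelithiasis, drawn from the DILIps training data for predicting drug-induced liver injury; call rule not given here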;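 for HepSE cirrhosis: cirrhosis hepatic side effect score taken from the DILIps (drug-induced liver injury prediction) training set; call rule not given here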;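 for HepSE elevated liver function tests: hepatic side effect score for raised liver function tests, as recorded in the DILIps training set used for predicting drug-induced liver injury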; for HepSE hepatic failure: call rule not given here
[5] = system: Hepatotoxicity; remark: listed apart in the source; for HepSE hepatic failure: call rule not given here
[6] = system: Hepatotoxicity; remark: listed apart in the source; for HepSE hepatic failure: call rule not given here
[7] = system: Hepatotoxicity; remark: listed apart in the source
[8] = system: Hepatotoxicity; remark: listed apart in the source
[9] = system: Hepatotoxicity; remark: listed apart in the source
[10] = system: Hepatotoxicity; remark: listed apart in the source
[11] = system: Hepatotoxicity; remark: listed apart in the source
[12] = system: Hepatotoxicity; remark: listed apart in the source
[13] = system: Hepatotoxicity; remark: listed apart in the source
[14] = system: Hepatotoxicity; remark: listed apart in the source

| SMILES | HepSE_bilirubinemia [1] | HepSE_cholecystitis [2] | HepSE_cholelithiasis [3] | HepSE_cirrhosis [4] | HepSE_elevated liver function tests [5] | HepSE_hepatic failure [6] | HepSE_hepatic necrosis [7] | HepSE_hepatitis [8] | HepSE_hepatomegaly [9] | HepSE_jaundice [10] | HepSE_liver disease [11] | HepSE_liver fatty [12] | HepSE_liver function tests abnormal [13] | HepSE_Combined Scores [14] | also measured |
| --- | --- | --- | --- | --- | --- | --- | --- | --- | --- | --- | --- | --- | --- | --- | --- |
| OC[C@@H](O)[C@@H](O)[C@H](O)[C@H](O)CO [MANNITOL] | 0 | 0 | 0 | 0 | 0 | 0 | 0 | 0 | 0 | 0 | 0 | 0 | 0 | 0 | – |
| CNCCCC12CCC(c3ccccc31)c1ccccc12 [MAPROTILINE] | – | – | – | – | – | – | – | – | – | – | – | – | – | – | HepSE_bilirubinemia ([1]; Liver): 0; HepSE_cholecystitis ([2]; Liver): 0; HepSE_cholelithiasis ([3]; Liver): 0; HepSE_cirrhosis ([4]; Liver): 0; HepSE_elevated liver function tests ([5]; Liver): 0; HepSE_hepatic failure ([6]; Liver): 0; HepSE_hepatic necrosis ([7]; Liver): 0; HepSE_hepatitis ([8]; Liver): 0; HepSE_hepatomegaly ([9]; Liver): 0; HepSE_jaundice ([10]; Liver): 1; HepSE_liver disease ([11]; Liver): 0; HepSE_liver fatty ([12]; Liver): 0; HepSE_liver function tests abnormal ([13]; Liver): 0; HepSE_Combined Scores ([14]; Liver): 1 |
| COC(=O)Nc1nc2ccc(C(=O)c3ccccc3)cc2[nH]1 [MEBENDAZOLE] | 0 | 0 | 0 | 0 | 0 | 0 | 0 | 1 | 0 | 0 | 0 | 0 | 0 | 1 | – |
| CNC1(C)C2CCC(C2)C1(C)C (configuration not stated) [MECAMYLAMINE] | 0 | 0 | 0 | 0 | 0 | 0 | 0 | 0 | 0 | 0 | 0 | 0 | 0 | 0 | – |
| Cc1cccc(CN2CCN(C(c3ccccc3)c3ccc(Cl)cc3)CC2)c1 (configuration not stated) [MECLIZINE] | 0 | 0 | 0 | 0 | 0 | 0 | 0 | 0 | 0 | 0 | 0 | 0 | 0 | 0 | – |
| Cc1ccc(Cl)c(Nc2ccccc2C(=O)O)c1Cl [MECLOFENAMIC ACID] | 0 | 0 | 0 | 0 | 0 | 0 | 0 | 0 | 0 | 1 | 0 | 0 | 0 | 1 | – |
| Cc1cccc(Nc2ccccc2C(=O)O)c1C [MEFENAMIC ACID] | – | – | – | – | – | – | – | – | – | – | – | – | – | – | HepSE_bilirubinemia ([1]; Liver): 0; HepSE_cholecystitis ([2]; Liver): 0; HepSE_cholelithiasis ([3]; Liver): 0; HepSE_cirrhosis ([4]; Liver): 0; HepSE_elevated liver function tests ([5]; Liver): 0; HepSE_hepatic failure ([6]; Liver): 1; HepSE_hepatic necrosis ([7]; Liver): 0; HepSE_hepatitis ([8]; Liver): 1; HepSE_hepatomegaly ([9]; Liver): 0; HepSE_jaundice ([10]; Liver): 1; HepSE_liver disease ([11]; Liver): 0; HepSE_liver fatty ([12]; Liver): 0; HepSE_liver function tests abnormal ([13]; Liver): 0; HepSE_Combined Scores ([14]; Liver): 3 |
| OC(c1cc(C(F)(F)F)nc2c(C(F)(F)F)cccc12)C1CCCCN1 (configuration not stated) [MEFLOQUINE] | 0 | 0 | 0 | 0 | 0 | 0 | 0 | 0 | 0 | 0 | 0 | 0 | 0 | 0 | – |
| CC(=O)O[C@]1(C(C)=O)CC[C@H]2[C@@H]3C=C(C)C4=CC(=O)CC[C@]4(C)[C@H]3CC[C@@]21C [MEGESTROL ACETATE] | 0 | 0 | 0 | 0 | 0 | 0 | 0 | 0 | 1 | 0 | 0 | 0 | 0 | 1 | – |
| Cc1cnc(NC(=O)C2=C(O)c3ccccc3S(=O)(=O)N2C)s1 [MELOXICAM] | 1 | 0 | 0 | 0 | 0 | 1 | 0 | 1 | 0 | 1 | 0 | 0 | 0 | 4 | – |
| CC12CC3CC(C)(C1)CC(N)(C3)C2 [MEMANTINE] | 0 | 0 | 1 | 0 | 0 | 1 | 0 | 1 | 0 | 0 | 0 | 0 | 0 | 3 | – |
| C[N+]1(C)CCCC(OC(=O)C(O)(c2ccccc2)c2ccccc2)C1.[Br-] (configuration not stated) [MEPENZOLATE BROMIDE] | 0 | 0 | 0 | 0 | 0 | 0 | 0 | 0 | 0 | 0 | 0 | 0 | 0 | 0 | – |
| CCOC(=O)C1(c2ccccc2)CCN(C)CC1 [MEPERIDINE] | 0 | 0 | 0 | 0 | 0 | 0 | 0 | 0 | 0 | 0 | 0 | 0 | 0 | 0 | – |
